One experiment concerns microglial cells. The experiment can be described thus: FACS analysis of apoptotic bodies (ABs) in supernatants of cultured microglial cells. Type of experiment: cell-based, mouse. To be noted: microglial cells isolated from young mice. How it is done:
Flow cytometry. Isolated cells were incubated with blocking solution (0.5% BSA/PBS) for 15 minutes at 4° C. For surface staining, cells were stained with various antibodies at room temperature for 1 hour and then washed with PBS. Washed cells were stained for 40 minutes at 4° C. with the appropriate fluorochrome-conjugated antibodies in PBS with 2% FBS. Data were acquired using a BD FACSCalibur flow cytometer (BD Biosciences, San Jose, CA) and analyzed using FlowJo software (Tree Star Inc., Ashland, OR). The following antibodies purchased from Biolegend were used for flow cytometry: anti-CD11b (101208), anti-CD45 (103112) and FITC Annexin V (640945). For the ABs analysis, extracellular vesicles were collected. To recognize the ABs, as described previously, size gates set based on forward scatter (FSC) were applied in combination with Annexin V staining. From these vesicles total ABs were detected using Annexin V staining events.
Isolation of apoptotic bodies. Apoptotic bodies (ABs) were isolated from culture supernatants as previously described. Briefly, cell culture medium was harvested and cells were removed by pelleting at 335×g for 10 minutes. To remove cell-debris, supernatants were centrifuged at 1,000×g for 10 minutes, followed by another centrifugation at 2,000×g for 30 minutes to pellet ABs. Pelleted ABs were resuspended and washed with PBS.

Experiment [1] in a line: Histological analysis (H&E) of brain. The following applies: IAA to young mice, phage to aged mice; especially cerebrum and cerebellum. The experiment is classed as in vivo, mouse. How it is done: Histological analysis. For hematoxylin and eosin (H&E) staining, tissues were fixed with buffered 10% formalin solution (SF93-20; Fisher Scientific, Fair Lawn, NJ) overnight at 4° C. Dehydration was achieved by immersion in a graded ethanol series of 70%, 80%, 95%, and 100% ethanol for 40 minutes each. Tissues were embedded in paraffin and subsequently cut into ultra-thin slices (5 μm) using a microtome. Tissues were deparaffinized by xylene (Fisher) and rehydrated by decreasing concentrations of ethanol and PBS. Tissue sections were stained with H&E and slides were scanned with an Aperio ScanScope. For frozen sections, tissues were fixed with periodate-lysine-paraformaldehyde (PLP) and dehydrated with 30% sucrose in PBS at 4° C. overnight. The sections were incubated overnight at 4° C. with anti-Iba1 (FujiFilm, #019-19741) and anti-CD-11b (Biolegend, #101204) diluted 1:100. The signal was visualized with the secondary antibodies conjugated to Fluors Alex-488 or Alex-594 (Invitrogen) and nuclei were stained with 4′,6-Diamidino-2-phenylindole dihydrochloride (DAPI). The slides were scanned using an Aperio ScanScope or visualized using confocal laser scanning microscopy (Nikon, Melville, NY).

A short description of experiment [2]: T-maze spontaneous alternation (TMSA) test. To be noted: IAA to young mice. Type of experiment: in vivo, mouse. How it is done:
T-maze test. To evaluate the cognitive impairment without requirement of full motor function, modified T-Maze test (Deacon and Rawlins, 2006) was carried out. Mice were gently handled, habituated to the T-Maze apparatus, and subjected to food deprivation. On the forced alternation sample trial (T1), the animals were exposed to the T-maze with one of the arms opened and rewarded with pellet at end of the arm. The opposite arm was blocked by a guillotine door. The mouse was allowed to explore the open arm and consume the reward. Ten consecutive trials were performed, then the mouse was removed. After 30 min, retrieval testing (T2) was performed. The blocked arm was opened and the mouse was placed in the same start position. […] If the mouse entered the same arm as in T1, the mouse was confined for 10 seconds and this response was marked as an “Error”. Each mouse was subjected to 10 consecutive runs. Forced Alternation [%] was defined as the percent of mice first entering the novel arm during T2. […] The three- or four-day intersession interval is used to assess recognition memory performances.

In experiment [3] the test system is IAA binding oligo of the S100A8 promoter (hairpin). The experiment can be described thus: Nucleic acid unwinding assay (helicase). The experiment is classed as biochemical. How it is done: Nucleic acid unwinding assay. Helicase reactions were carried out in triplicate in 96-well plates. To prepare DNA substrate, 20 μM single strand DNA (WT: 5′-Cy3-[…]-BHQ1-3′ (SEQ ID NO: 5); Mutant: 5′-Cy3-[…]-BHQ1-3′ (SEQ ID NO: 6; Eurofins Genomics LLC, KY) were denatured at 95° C. for 5 minutes in the reaction buffer (25 mM Tris HCl pH 7.5, 100 mM NaCl, 15 mM MgCl2, 1 mM DTT, 0.1 mg/ml BSA) and cooled slowly to room temperature before add IAA (100 nM) and/or helicase ([…]). After ATP (2 mM) was added to initiate the helicase activity, the fluorescence value was recorded using a microplate reader with an excitation wavelength of 550 and an emission wavelength of 570. BHQ: black-hole quencher.

On to `CC(C)CCN` [IAA, isoamylamine], for which the “ABs released into the culture supernatants” value in the experiment on microglial cells is on record as “increase”. Moreover, the “neuronal loss and dying neurons in the brain (histology)” value in experiment [1] is listed as “significantly promoted”. Further, the “deficit of spatial learning in the TMSA (percentage of correct choices)” value in experiment [2] (phage to aged mice) is “induced the deficit”. For the same molecule, the “percentage of alternating choices (exploring new arm), TMSA” value in experiment [2] (phage^TSD-27 to aged mice) is “reduced young mice exploring the new path”. Also, the “activity of helicase unwinding of the self-complementary binding sequence” value in experiment [3] (WT Cy3/BHQ1 oligo, with helicase) is “enhanced”. In experiment [3] (mutant Cy3/BHQ1 oligo), the “unwinding of mutant sequence” value is listed as “attenuated”.

Values taken from US20250136997A1, “COMPOSITIONS FOR SEQUESTERING ISOAMYL AMINE AND METHODS OF USE THEREFOR” (University of Louisville Research Foundation, Inc., priority 2023, published 2025).
